Test: Association of PHMB with PCC after drying (drum dryer)
Type: physicochemical
Settings: only water is evaporated
Excerpt: Although PHMB is water soluble, with the drying process used for PCC (a drum dryer), only water is evaporated; the PHMB remains associated with the PCC.

With poly[(hexamethylene)biguanide] [PHMB] the “Association of PHMB with the PCC after the drying process” value was “remains associated with the PCC after the drying process”.

— patent US10206860B2, “Biguanide preservation of precipitated calcium carbonate” (Colgate-Palmolive Company, priority 2009, dated 2019)
